# Read-outs that look alike come from different tables or passages of the source.
# How the values were obtained:
# [1] = system: Pseudomonas putida KT2440; assay: Bacterial growth in microscale cultivation, P. putida; format: cell-based; settings: for activity at 8 µM / activity at 80 µM / activity at 400 µM / activity at 5 µM / activity at 50 µM / activity at 500 µM: Pseudomonas putida; for activity at 8 µM / activity at 80 µM / activity at 400 µM / Lag Phase: relative to control
# Protocol: (§1) The following bacteria were cultivated in the presence of trans-chalcone derived inhibitors: Corynebacterium glutamicum ATCC13032[43], Escherichia coli K-12 MG1655[44], Pseudomonas putida KT2440[45], and Bacillus subtilis 168[46]. The growth of these bacteria was monitored in flower-well plates shaken at 1200 rpm as backscatter at 620 nm (gain 20) using a BioLector® microscale cultivation system (m2p labs, Baesweiler, Germany). For further experimental details please refer to the Supplementary Information.
# (§2) medium or the appropriate minimal medium and shaken at 140 rpm overnight. For inoculation of
# (§3) the main culture, cells equivalent to an optical density at 600 nm of 0.5 (C. glutamicum, E. coli,
# (§4) and P. putida) or 0.25 (B. subtilis) in 800 µL medium were washed and resuspended in fresh
# (§5) media. Inhibitor substances were dissolved in DMSO and added to the media to a final
# (§6) Since the least polar trans-chalcone and 2’-hydroxychalcone precipitated in the growth media at
# (§7) the highest concentrations, the maximal concentration of these compounds was reduced to 400
# (§8) µM and 100 µM, respectively. The final backscatter at 620 nm, the growth rate (h-1), and the
# (§9) duration of the lag phase of all cultures were determined in a BioLector microscale cultivation
# (§10) system in comparison to negative controls supplemented with the solvent DMSO. A longer lag
# [2] = system: Amaranthus retroflexus; assay: In planta growth experiment, A. retroflexus; format: in vivo; settings: shoots sprayed, 3 mM
# Source text: Seeds of Amaranthus retroflexus L. (Herbiseed, Twyford, UK) and Brassica napus L. cv. Mozart (Norddeutsche Pflanzenzucht Hans-Georg Lembke KG, Holtsee, Germany) were sown in vermiculite for germination. When cotyledons were fully expanded, seedlings were transplanted into plastic pots with a volume of 0.230 L filled with a substrate containing 50% bottom ash (0–4 mm), 30% peat and 20% pumice gravel (0–4 mm). Plants were watered every other day with 0.03% Hakaphos® Grün solution (Compo Expert GmbH, Münster, Germany) by sub-irrigation. Plants were grown in a climate chamber at 22 °C/20 °C day/night temperature and a day/night length of 16 h/8 h. Relative humidity was adjusted to 70% and light intensity was 320 μmol m^−2 s^−1 PAR (Photosynthetically Active Radiation) at plant level.
# When seedlings reached the two-leaf growth stage, plant shoots were sprayed from the top with treatment solutions using spray bottles with a spraying angle of 35° (10 ml, neoLab Migge Laborbedarf-Vertriebs GmbH, Heidelberg, Germany). Treatment solutions were applied from a height of 8.5 cm above the pots. Each pot was sprayed once with a solution volume of 0.135 ml. Treatment solutions contained 2.4% (v/v) DMSO (dimethylsulfoxide, Duchefa Biochemie, Haarlem, the Netherlands), 0.1% (v/v) Tween® and the respective compound at a concentration of 3 mM. The control treatment contained 2.4% (v/v) DMSO, and 0.1% (v/v) Tween20. Further details are given in the Supplementary Information. […]
# Experimental design and assessments of in planta experiments
# We tested eleven compounds in a first experiment. In a follow-up experiment we tested selected […]
# chalcone. Each treatment was repeated 12 times, except for oilseed rape in the second experiment (n=10). Pots were arranged in the growth chamber according to a fully randomized design. Initial growth of the second leaf of A. retroflexus plants was monitored by aquiring images of each plant from above from day zero to day two after treatment. Images were taken […]
# from a fixed distance at 90° view angle using the camera Canon EOS 70D equipped with a Canon EF 14 mm/2.8 L II USM lens. Leaf area of single leaves was measured using the ImageJ software31, by drawing the leaf contours using a drawing tablet (Cintiq 22HD, Wacom Europe GmbH, Krefeld, Germany). Conversion of pixel to cm was achieved by using a target of known size inside the image. Six days after the treatment, half of the plants were harvested. Leaf area was assessed using a leaf area meter (LI3100C Area Meter, LI-Cor, Lincoln, Nebraska, USA) and samples were oven-dried at 65°C for seven days to obtain dry weight . Thirteen days after the treatment, this procedure was repeated with the second half of plants.
# Chlorophyll fluorescence measurements […]
# 6 mm leaf discs were cut out of the second leaf and immediately placed into 96-well-plates filled with 300 µL 0.125 % Hoagland’s solution with 1 mM MES-KOH (MES-monohydrate, Merck, Darmstadt, Germany) buffered to a pH of 6.5. The treatment solution contained 1.6 % (v/v) DMSO, 0.1 % (v/v) Tween® 20 and 2',3',4',3,4-Pentahydroxychalcone at a concentration of 2 mM. The control treatment contained 1.6 % (v/v) DMSO, 0.1 % (v/v) Tween® 20. Each leaf disc was treated with 1.5 µL solution placed on top of the leaf discs. Plates were sealed with Parafilm and placed into a climate cabinet with 12h/12h day/night-length and a temperature of 22°C at a light intensity of 130 µmol m-2 s-1. 96 hours after treatment, chlorophyll fluorescence measurements were performed on leaf discs using an Imaging PAM M-Series fluorescence camera (Heinz Walz GmbH, Effeltrich, Germany). Leaf discs were dark adapted for 30 minutes, minimum and maximum chlorophyll fluorescence were obtained and leaf discs were illuminated for 30 minutes
# [3] = system: Escherichia coli K-12 MG1655; assay: Bacterial growth in microscale cultivation, E. coli; format: cell-based; settings: for activity at 8 µM / activity at 80 µM / activity at 800 µM / activity at 5 µM / activity at 50 µM / activity at 500 µM: Escherichia coli; for activity at 8 µM / activity at 80 µM / activity at 800 µM / Lag Phase: relative to control
# Protocol: as §1, §2, §3, §4, §5, §6, §7, §8, §9, §10
smiles,measurement,setting,value
"O=C(/C=C/c1ccccc1)c1ccccc1 [Compound 1, trans-Chalcone]",activity at 8 µM,"[1]; KT2440, complex medium, 8 µM, read-out: Final Backscatter",95.3%
same,activity at 8 µM,"[1]; KT2440, complex medium, 8 µM, read-out: Growth rate",98.4%
same,activity at 80 µM,"[1]; KT2440, complex medium, 80 µM, read-out: Final Backscatter",96.7%
same,activity at 80 µM,"[1]; KT2440, complex medium, 80 µM, read-out: Growth rate",100%
same,activity at 400 µM,"[1]; KT2440, complex medium, 400 µM, read-out: Final Backscatter",97.3%
same,activity at 400 µM,"[1]; KT2440, complex medium, 400 µM, read-out: Growth rate",103%
same,activity at 8 µM,"[1]; KT2440, minimal medium, 8 µM, read-out: Final Backscatter",94.4%
same,activity at 8 µM,"[1]; KT2440, minimal medium, 8 µM, read-out: Growth rate",112%
same,activity at 80 µM,"[1]; KT2440, minimal medium, 80 µM, read-out: Final Backscatter",94.2%
same,activity at 80 µM,"[1]; KT2440, minimal medium, 80 µM, read-out: Growth rate",113%
same,activity at 400 µM,"[1]; KT2440, minimal medium, 400 µM, read-out: Final Backscatter",100%
same,activity at 400 µM,"[1]; KT2440, minimal medium, 400 µM, read-out: Growth rate",119%
same,Lag Phase,"[1]; complex medium, 8 µM","100,6%"
same,Lag Phase,"[1]; complex medium, 80 µM","101,8%"
same,Lag Phase,"[1]; complex medium, 400 µM","103,0%"
same,Lag Phase,"[1]; minimal medium, 8 µM","98,9%"
same,Lag Phase,"[1]; minimal medium, 80 µM","99,3%"
same,Lag Phase,"[1]; minimal medium, 400 µM","98,1%"
same,Influence on plants,[2],No
same,activity at 8 µM,"[3]; MG1655, complex medium, 8 µM, read-out: Final Backscatter",99%
same,activity at 8 µM,"[3]; MG1655, complex medium, 8 µM, read-out: Growth rate",105%
same,activity at 80 µM,"[3]; MG1655, complex medium, 80 µM, read-out: Final Backscatter",97.4%
same,activity at 80 µM,"[3]; MG1655, complex medium, 80 µM, read-out: Growth rate",109%
same,activity at 800 µM,"[3]; MG1655, complex medium, 800 µM, read-out: Final Backscatter",108%
same,activity at 800 µM,"[3]; MG1655, complex medium, 800 µM, read-out: Growth rate",94.7%
same,activity at 8 µM,"[3]; MG1655, minimal medium, 8 µM, read-out: Final Backscatter",100%
same,activity at 8 µM,"[3]; MG1655, minimal medium, 8 µM, read-out: Growth rate",97.5%
same,activity at 80 µM,"[3]; MG1655, minimal medium, 80 µM, read-out: Final Backscatter",95.1%
same,activity at 80 µM,"[3]; MG1655, minimal medium, 80 µM, read-out: Growth rate",104%
same,activity at 800 µM,"[3]; MG1655, minimal medium, 800 µM, read-out: Final Backscatter",103%
same,activity at 800 µM,"[3]; MG1655, minimal medium, 800 µM, read-out: Growth rate",107%
same,Lag Phase,"[3]; complex medium, 8 µM","102,4%"
same,Lag Phase,"[3]; complex medium, 80 µM","102,4%"
same,Lag Phase,"[3]; complex medium, 800 µM","101,2%"
same,Lag Phase,"[3]; minimal medium, 8 µM","99,1%"
same,Lag Phase,"[3]; minimal medium, 80 µM","101,8%"
same,Lag Phase,"[3]; minimal medium, 800 µM","97,8%"
"O=C(/C=C/c1ccccc1)c1ccccc1O [Compound 2, 2′-Hydroxychalcone]",activity at 5 µM,"[1]; KT2440, read-out: Final Backscatter, complex medium, 5 µM, relative to control",98%
same,activity at 50 µM,"[1]; KT2440, read-out: Final Backscatter, complex medium, 50 µM, relative to control",101%
same,activity at 500 µM,"[1]; KT2440, read-out: Final Backscatter, complex medium, 500 µM, relative to control",102%
same,activity at 5 µM,"[1]; KT2440, read-out: Final Backscatter, minimal medium, 5 µM, relative to control",96.6%
same,activity at 50 µM,"[1]; KT2440, read-out: Final Backscatter, minimal medium, 50 µM, relative to control",98%
same,activity at 500 µM,"[1]; KT2440, read-out: Final Backscatter, minimal medium, 500 µM, relative to control",111%
same,activity at 5 µM,"[1]; KT2440, read-out: Growth rate, complex medium, 5 µM, relative to control",103%
same,activity at 50 µM,"[1]; KT2440, read-out: Growth rate, complex medium, 50 µM, relative to control",102%
same,activity at 500 µM,"[1]; KT2440, read-out: Growth rate, complex medium, 500 µM, relative to control",189%
same,activity at 5 µM,"[1]; KT2440, read-out: Growth rate, minimal medium, 5 µM, relative to control",96%
same,activity at 50 µM,"[1]; KT2440, read-out: Growth rate, minimal medium, 50 µM, relative to control",99.3%
same,activity at 500 µM,"[1]; KT2440, read-out: Growth rate, minimal medium, 500 µM, relative to control",153%
same,Lag Phase,"[1]; complex medium, 5 µM","101,0%"
same,Lag Phase,"[1]; complex medium, 50 µM","102,6%"
same,Lag Phase,"[1]; complex medium, 500 µM","110,8%"
same,Lag Phase,"[1]; minimal medium, 5 µM","100,0%"
same,Lag Phase,"[1]; minimal medium, 50 µM","100,6%"
same,Lag Phase,"[1]; minimal medium, 500 µM","100,0%"
same,Influence on plants,[2],No
same,activity at 5 µM,"[3]; MG1655, read-out: Final Backscatter, complex medium, 5 µM, relative to control",100%
same,activity at 50 µM,"[3]; MG1655, read-out: Final Backscatter, complex medium, 50 µM, relative to control",103%
same,activity at 500 µM,"[3]; MG1655, read-out: Final Backscatter, complex medium, 500 µM, relative to control",98.1%
same,activity at 5 µM,"[3]; MG1655, read-out: Final Backscatter, minimal medium, 5 µM, relative to control",100%
same,activity at 50 µM,"[3]; MG1655, read-out: Final Backscatter, minimal medium, 50 µM, relative to control",97%
same,activity at 500 µM,"[3]; MG1655, read-out: Final Backscatter, minimal medium, 500 µM, relative to control",101%
same,activity at 5 µM,"[3]; MG1655, read-out: Growth rate, complex medium, 5 µM, relative to control",97.7%
same,activity at 50 µM,"[3]; MG1655, read-out: Growth rate, complex medium, 50 µM, relative to control",86.6%
same,activity at 5 µM,"[3]; MG1655, read-out: Growth rate, minimal medium, 5 µM, relative to control",102%
same,activity at 50 µM,"[3]; MG1655, read-out: Growth rate, minimal medium, 50 µM, relative to control",105%
same,Lag Phase,"[3]; complex medium, 5 µM","95,5%"
same,Lag Phase,"[3]; complex medium, 50 µM","100,0%"
same,Lag Phase,"[3]; minimal medium, 5 µM","89,4%"
same,Lag Phase,"[3]; minimal medium, 50 µM","91,6%"
